Test results from US11236055B2 (Venenum Biodesign, LLC, priority 2016, dated 2022).

Columns and labels:
human TGR5 receptor = target: T1, human TGR5 receptor (Homo sapiens, UniProt Q8TDU6); test: Human TGR5 cAMP production assay; assay type: cell-based; conditions: human TGR5, luminescent cAMP assay; coded A-D; read-out: Human TGR5 Lum. cAMP Activity (EC50)
T1 construct: host or cells: CHO-K1 (hTGR5-CHO cells)
T1 sequence (Q8TDU6 1-330): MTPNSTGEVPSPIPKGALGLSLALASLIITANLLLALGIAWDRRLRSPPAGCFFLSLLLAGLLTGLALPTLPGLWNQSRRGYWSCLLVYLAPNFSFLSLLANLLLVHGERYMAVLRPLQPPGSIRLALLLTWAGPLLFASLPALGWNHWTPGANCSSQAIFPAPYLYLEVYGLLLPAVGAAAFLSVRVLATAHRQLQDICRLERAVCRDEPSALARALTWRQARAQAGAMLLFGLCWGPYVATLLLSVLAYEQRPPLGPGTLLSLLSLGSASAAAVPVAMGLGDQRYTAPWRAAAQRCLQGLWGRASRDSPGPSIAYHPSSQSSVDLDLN
Summary of the method: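 CHO-K1 cells stably expressing human TGR5, with IBMX and cAMP antibody, were exposed to half-log serially diluted compound for 1 h at room temperature. cAMP measured by enzyme-fragment complementation luminescence (XS+ kit) after overnight incubation; EC50 values reported.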

mouse TGR5 receptor = target: T2, mouse TGR5 receptor (Mus musculus, UniProt Q80SS6); test: Mouse TGR5 cAMP production assay (luminescent, DiscoveRx cAMP XS+); assay type: cell-based; conditions: HEK293-EBNA cells overexpressing mouse TGR5, luminescent cAMP XS+; coded A-D; read-out: Mouse TGR5 Lum. cAMP Activity (EC50)
T2 construct: expressed in transfected cells; host or cells: HEK293-EBNA (293 c18, ATCC CRL10852), Hygromycin B selection
T2 sequence (Q80SS6 1-329): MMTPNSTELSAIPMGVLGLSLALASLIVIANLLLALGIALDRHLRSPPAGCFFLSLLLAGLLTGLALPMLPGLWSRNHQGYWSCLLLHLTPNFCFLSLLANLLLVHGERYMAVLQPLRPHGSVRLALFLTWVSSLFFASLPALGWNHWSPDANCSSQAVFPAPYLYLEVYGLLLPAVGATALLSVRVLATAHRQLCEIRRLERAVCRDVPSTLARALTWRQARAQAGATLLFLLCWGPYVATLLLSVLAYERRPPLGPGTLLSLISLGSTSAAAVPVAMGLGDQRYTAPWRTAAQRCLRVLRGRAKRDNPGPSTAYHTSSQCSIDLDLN
Excerpt: Mouse TGR5 cAMP Production Assay
We evaluated compounds of the present invention for their ability to induce cAMP production in HEK-EBNA cells overexpressing the mouse TGR5 receptor. Human embryonic kidney cells (HEK293-EBNA) stably expressing mouse TGR5 receptor were established using the following procedure. Specifically, a commercially-obtained gene encoding mouse TGR5 (accession number BC116914) from Thermo Scientific (Waltham, Mass.) was cloned into an episomal expression vector. The resulting expression plasmid was then transfected into 293 c18 (ATCC® CRL10852™) cells, which express the Epstein-Barr virus nuclear antigen EBNA1 and can support the replication of episomal vectors. Selection for the plasmid was maintained with Hygromycin B. Cells were cultured and maintained in DMEM (Sigma; cat #6429) supplemented with 10% Fetal Bovine Serum, 1% penicillin/streptomycin, 2 mM L-alanine L-glutamine (GlutaMax), and 250 μg/mL Hygromycin.
Two cAMP production assays were developed.
1. Luminescent cAMP Production Assay
In this first cAMP production assay, the cAMP production was measured using DiscoveRx's cAMP XS+ kit following the manufacturer's recommended protocol.
Briefly, HEK293-EBNA cells stably overexpressing mouse TGR5 were harvested using non-enzymatic cell dissociation buffer (Sigma-Aldrich, St. Louis, Mo.), spun down, then resuspended in serum-free DMEM with 500 μM IBMX at a density of 1.25×10^6 cells/mL. 500 μL of cAMP antibody solution was added to […] of cell suspension and incubated at room temperature for 20 min.
Test compounds were serially diluted (half-log dilutions) in DMSO and then further diluted 1:50 in PBS, 10 mM HEPES buffer. 2 μL of serially diluted compound was added to a 384-well low volume plate (Greiner cat #784075) and centrifuged briefly. 2 μL of the cell/cAMP antibody mixture was then added to each compound-containing well and allowed to incubate at room temperature for one (1) hour. Following incubation, the XS+ kits' ED/Lysis/CL Substrate Working Solution was prepared following the manufacturer's recommended protocol and 4 μL was added to each well of the plate. The plate was then incubated for one (1) hour at room temperature. Following incubation, 4 μL of (Enzyme Acceptor) EA reagent was added to the plate and allowed to incubate overnight at room temperature. Luminescent signal was then detected using the Viewlux instrument (Perkin-Elmer, Waltham, Mass.).
In Table 33, EC50 values for both human and mouse cells were determined according to the TGR5 cAMP assays described above.

Row | SMILES | EC50 (human TGR5 receptor) [µM] | EC50 (mouse TGR5 receptor) [µM]
1 | Cc1cccc(S(=O)(=O)NCc2cccc(-c3ccncc3)c2)c1 [Compound 2AI] | 1 to 30 | 1 to 30
2 | O=S(=O)(NCc1cccc(-c2ccncc2)c1)c1cccc(Cl)c1 [Compound 2AJ] | 1 to 30 | 1 to 30
3 | O=S(=O)(NCc1cccc(-c2ccncc2)c1)c1cccc(F)c1 [Compound 2AK] | 1 to 30 | > 30
4 | COc1cccc(S(=O)(=O)NCc2cccc(-c3ccncc3)c2)c1 [Compound 2AL] | 1 to 30 | > 30
5 | O=S(=O)(NCc1cccc(-c2ccncc2)c1)c1ccccc1C(F)(F)F [Compound 2AM] | 1 to 30 | 1 to 30
6 | O=[N+]([O-])c1cccc(S(=O)(=O)NCc2cccc(-c3ccncc3)c2)c1 [Compound 2AN] | 1 to 30 | 1 to 30
7 | O=[N+]([O-])c1ccccc1S(=O)(=O)NCc1cccc(-c2ccncc2)c1 [Compound 2AO] | 1 to 30 | 1 to 30
8 | Cc1ccccc1S(=O)(=O)NCc1cccc(-c2ccncc2)c1 [Compound 2AP] | 1 to 30 | > 30
9 | O=S(=O)(NCc1cccc(-c2ccncc2)c1)c1cccc(Br)c1 [Compound 2AQ] | 0.1 to 0.999 | > 30
10 | O=S(=O)(NCc1cccc(-c2ccncc2)c1)c1ccccc1Cl [Compound 2AR] | 1 to 30 | > 30
11 | O=S(=O)(NCc1cccc(-c2ccncc2)c1)c1ccccc1F [Compound 2AS] | 1 to 30 | > 30
12 | COc1cnccc1-c1cccc(C(C)(C)NS(=O)(=O)c2cccc(Br)c2)c1 [Compound 2AT] | 0.1 to 0.999 | 1 to 30
13 | COc1cnccc1-c1cccc(C(C)(C)NS(=O)(=O)c2cc(C(F)(F)F)ccc2OC)c1 [Compound 2AW] | 1 to 30 | 1 to 30
14 | COc1cnccc1-c1cccc(C(C)(C)NS(=O)(=O)c2ccccc2Cl)c1 [Compound 2AX] | 0.1 to 0.999 | 0.1 to 0.999
15 | COc1cnccc1-c1cccc(C(C)(C)NS(=O)(=O)c2cccc(Cl)c2)c1 [Compound 2AY] | 0.1 to 0.999 | 0.1 to 0.999
16 | COc1cnccc1-c1cccc(C(C)(C)NS(=O)(=O)c2cccc(C)c2)c1 [Compound 2AZ] | 0.1 to 0.999 | 0.1 to 0.999
17 | COc1cnccc1-c1cccc(C(C)(C)NS(=O)(=O)c2cc(Br)cc(C(F)(F)F)c2)c1 [Compound 2BB] | 0.1 to 0.999 | 0.1 to 0.999
18 | COc1cnccc1-c1cccc([C@H](C)NS(=O)(=O)c2cccc(Br)c2)c1 [Compound 2BO] | 0.1 to 0.999 | 1 to 30
19 | COc1cnccc1-c1cccc([C@H](C)NS(=O)(=O)c2ccccc2[N+](=O)[O-])c1 [Compound 2BP] | < 0.1 | 0.1 to 0.999
20 | C[C@H](NS(=O)(=O)c1cccc(Br)c1)c1cccc(-c2ccncc2Cl)c1 [Compound 2BR] | 0.1 to 0.999 | 1 to 30
21 | C[C@H](NS(=O)(=O)c1ccccc1[N+](=O)[O-])c1cccc(-c2ccncc2Cl)c1 [Compound 2BS] | 0.1 to 0.999 | 0.1 to 0.999
22 | C[C@H](NS(=O)(=O)c1ccccc1C(F)(F)F)c1cccc(-c2ccncc2Cl)c1 [Compound 2BT] | < 0.1 | 0.1 to 0.999
23 | CCc1cnccc1-c1cccc(C(C)(C)NS(=O)(=O)c2cccc(C(F)(F)F)c2)c1 [Compound 5AB, N-(2-(3-(3-ethylpyridin-4-yl)phenyl)propan-2-yl)-3-(trifluoromethyl)benzenesulfonamide] | < 0.1 | 0.1 to 0.999
